ChEMBL document CHEMBL1250443, “Microarray-based method for monitoring yeast overexpression strains reveals small-molecule targets in TOR pathway” (Nat Chem Biol, 2006)

Experiments:
[1] = Inhibition of TOR signaling in wild-type Saccharomyces cerevisiae transformed with overexpression plasmids assessed as decreased RTT101 gene expression by microarray
[2] = Inhibition of TOR signaling in wild-type Saccharomyces cerevisiae transformed with overexpression plasmids assessed as decreased DCR2 gene expression by microarray
[3] = Inhibition of TOR signaling in wild-type Saccharomyces cerevisiae transformed with overexpression plasmids assessed as increased PDR3 gene expression by microarray
[4] = Inhibition of TOR signaling in wild-type Saccharomyces cerevisiae transformed with overexpression plasmids assessed as increased HSP104 gene expression by microarray
[5] = Inhibition of TOR signaling in wild-type Saccharomyces cerevisiae transformed with overexpression plasmids assessed as decreased TUL1 gene expression by microarray
[6] = Inhibition of TOR signaling in wild-type Saccharomyces cerevisiae transformed with overexpression plasmids assessed as increased SSH1 gene expression by microarray
[7] = Inhibition of TOR signaling in wild-type Saccharomyces cerevisiae transformed with overexpression plasmids assessed as increased CDC33 gene expression by microarray
[8] = Inhibition of TOR signaling in wild-type Saccharomyces cerevisiae transformed with overexpression plasmids assessed as decreased SHO1 gene expression by microarray
[9] = Inhibition of TOR signaling in wild-type Saccharomyces cerevisiae transformed with overexpression plasmids assessed as decreased SUT2 gene expression by microarray
[10] = Inhibition of TOR signaling in wild-type Saccharomyces cerevisiae transformed with overexpression plasmids assessed as increased THI21 gene expression by microarray
[11] = Inhibition of TOR signaling in wild-type Saccharomyces cerevisiae transformed with overexpression plasmids assessed as decreased TPO4 gene expression by microarray
[12] = Inhibition of TOR signaling in wild-type Saccharomyces cerevisiae transformed with overexpression plasmids assessed as decreased YKL174C gene expression by microarray
[13] = Inhibition of TOR signaling in wild-type Saccharomyces cerevisiae transformed with overexpression plasmids assessed as increased RTT106 gene expression by microarray
[14] = Inhibition of TOR signaling in wild-type Saccharomyces cerevisiae transformed with overexpression plasmids assessed as increased NCL1 gene expression by microarray
[15] = Inhibition of TOR signaling in wild-type Saccharomyces cerevisiae transformed with overexpression plasmids assessed as increased UTP8 gene expression by microarray
[16] = Inhibition of TOR signaling in wild-type Saccharomyces cerevisiae transformed with overexpression plasmids assessed as decreased MSB3 gene expression by microarray
[17] = Inhibition of TOR signaling in wild-type Saccharomyces cerevisiae transformed with overexpression plasmids assessed as decreased APM2 gene expression by microarray
[18] = Inhibition of TOR signaling in wild-type Saccharomyces cerevisiae transformed with overexpression plasmids assessed as increased YPR153W gene expression by microarray
[19] = Inhibition of TOR signaling in wild-type Saccharomyces cerevisiae transformed with overexpression plasmids assessed as decreased HSD1 gene expression by microarray
[20] = Inhibition of TOR signaling in wild-type Saccharomyces cerevisiae transformed with overexpression plasmids assessed as decreased PRM6 gene expression by microarray
[21] = Inhibition of TOR signaling in wild-type Saccharomyces cerevisiae transformed with overexpression plasmids assessed as increased GPM3 gene expression by microarray
[22] = Inhibition of TOR signaling in wild-type Saccharomyces cerevisiae transformed with overexpression plasmids assessed as increased IML2 gene expression by microarray
[23] = Inhibition of TOR signaling in wild-type Saccharomyces cerevisiae transformed with overexpression plasmids assessed as decreased GIS4 gene expression by microarray
[24] = Inhibition of TOR signaling in wild-type Saccharomyces cerevisiae transformed with overexpression plasmids assessed as increased YLR346C gene expression by microarray
[25] = Inhibition of TOR signaling in wild-type Saccharomyces cerevisiae transformed with overexpression plasmids assessed as decreased EFR3 gene expression by microarray
[26] = Inhibition of TOR signaling in wild-type Saccharomyces cerevisiae transformed with overexpression plasmids assessed as decreased YBR284W gene expression by microarray
[27] = Inhibition of TOR signaling in wild-type Saccharomyces cerevisiae transformed with overexpression plasmids assessed as decreased YCL036W gene expression by microarray
[28] = Inhibition of TOR signaling in wild-type Saccharomyces cerevisiae transformed with overexpression plasmids assessed as decreased YCR007C gene expression by microarray
[29] = Inhibition of TOR signaling in wild-type Saccharomyces cerevisiae transformed with overexpression plasmids assessed as increased YDL063C gene expression by microarray
[30] = Inhibition of TOR signaling in wild-type Saccharomyces cerevisiae transformed with overexpression plasmids assessed as decreased YFL054C gene expression by microarray
[31] = Inhibition of TOR signaling in wild-type Saccharomyces cerevisiae transformed with overexpression plasmids assessed as decreased YLR224W gene expression by microarray
[32] = Inhibition of TOR signaling in wild-type Saccharomyces cerevisiae transformed with overexpression plasmids assessed as decreased YMR034C gene expression by microarray
[33] = Inhibition of TOR signaling in wild-type Saccharomyces cerevisiae transformed with overexpression plasmids assessed as increased YOR042W gene expression by microarray
[34] = Inhibition of TOR signaling in wild-type Saccharomyces cerevisiae transformed with overexpression plasmids assessed as decreased YPL264C gene expression by microarray
Saccharomyces cerevisiae [35] = experiment: Increase of HMI1 gene expression in wild-type Saccharomyces cerevisiae transformed with overexpression plasmids by microarray; format: functional
Saccharomyces cerevisiae [36] = experiment: Decrease of RIM11 gene expression in wild-type Saccharomyces cerevisiae transformed with overexpression plasmids by microarray; format: functional
Saccharomyces cerevisiae [37] = experiment: Decrease of SGN1 gene expression in wild-type Saccharomyces cerevisiae transformed with overexpression plasmids by microarray; format: functional
[38] = Inhibition of TOR signaling in wild-type Saccharomyces cerevisiae transformed with overexpression plasmids assessed as increased ALD6 gene expression by microarray
[39] = Inhibition of TOR signaling in wild-type Saccharomyces cerevisiae transformed with overexpression plasmids assessed as decreased CDC16 gene expression by microarray
[40] = Inhibition of TOR signaling in wild-type Saccharomyces cerevisiae transformed with overexpression plasmids assessed as increased CDC5 gene expression by microarray
[41] = Inhibition of TOR signaling in wild-type Saccharomyces cerevisiae transformed with overexpression plasmids assessed as increased ZDS2 gene expression by microarray
[42] = Inhibition of TOR signaling in wild-type Saccharomyces cerevisiae transformed with overexpression plasmids assessed as increased APN2 gene expression by microarray
[43] = Inhibition of TOR signaling in wild-type Saccharomyces cerevisiae transformed with overexpression plasmids assessed as decreased NRG1 gene expression by microarray
[44] = Inhibition of TOR signaling in wild-type Saccharomyces cerevisiae transformed with overexpression plasmids assessed as decreased ATX2 gene expression by microarray
[45] = Inhibition of TOR signaling in wild-type Saccharomyces cerevisiae transformed with overexpression plasmids assessed as decreased FUS3 gene expression by microarray

CO[C@H]1C[C@@H]2CC[C@@H](C)[C@@](O)(O2)C(=O)C(=O)N2CCCC[C@H]2C(=O)O[C@H]([C@H](C)C[C@@H]2CC[C@@H](O)[C@H](OC)C2)CC(=O)[C@H](C)/C=C(\C)[C@@H](O)[C@@H](OC)C(=O)[C@H](C)C[C@H](C)/C=C/C=C/C=C/1C [SIROLIMUS]
fold change (FC) [1]: -3.3 | fold change (FC) [2]: -5.9 | fold change (FC) [3]: 14.4 | fold change (FC) [4]: 6.3 | fold change (FC) [5]: -3.7 | fold change (FC) [6]: 2.3 | fold change (FC) [7]: 2 | fold change (FC) [8]: -4.4 | fold change (FC) [9]: -3.8 | fold change (FC) [10]: 2.2 | fold change (FC) [11]: -5.8 | fold change (FC) [12]: -5.6 | fold change (FC) [13]: 8.3 | fold change (FC) [14]: 7.4 | fold change (FC) [15]: 2.6 | fold change (FC) [16]: -2 | fold change (FC) [17]: -2.4 | fold change (FC) [18]: 2.1 | fold change (FC) [19]: -4.5 | fold change (FC) [20]: -4.4 | fold change (FC) [21]: 2.5 | fold change (FC) [22]: 24.4 | fold change (FC) [23]: -7.2 | fold change (FC) [24]: 2.7 | fold change (FC) [25]: -3.1 | fold change (FC) [26]: -3.2 | fold change (FC) [27]: -2.1 | fold change (FC) [28]: -2.2 | fold change (FC) [29]: 2.5 | fold change (FC) [30]: -2.5 | fold change (FC) [31]: -2.9 | fold change (FC) [32]: -4.4 | fold change (FC) [33]: 2.7 | fold change (FC) [34]: -3.2 | fold change (FC) (Saccharomyces cerevisiae [35]): -2.3 | fold change (FC) (Saccharomyces cerevisiae [36]): 2.9 | fold change (FC) (Saccharomyces cerevisiae [37]): -2.1 | fold change (FC) [38]: 3 | fold change (FC) [39]: -2.3 | fold change (FC) [40]: 3.4 | fold change (FC) [41]: 13.6 | fold change (FC) [42]: 2.1 | fold change (FC) [43]: -2.3 | fold change (FC) [44]: -2 | fold change (FC) [45]: -3.2
